In one data set the target is human recombinant WT BTK (Homo sapiens, UniProt Q06187). Nature of the data set: Caliper-based biochemical enzymatic assay (IC50) against WT BTK. The note with it: WT BTK 0.5 nM, ATP 16 μM, peptide substrate 1 μM, room temperature 3 h. The method, then: The reaction was then terminated with EDTA, final concentration 20 mM and the phosphorylated reaction product was quantified on a Caliper Desktop Profiler (Caliper LabChip 3000). Percent inhibition was calculated for each compound dilution and the concentration that produced 50% inhibition was calculated.

The conditions of data set [1]: formulations containing GDC-0853; cited from earlier work.
The conditions of data set [2]: mice, even at higher doses; cited from earlier work.
For data set [3] the following is noted: rats, treatment for longer than 7 days; cited from earlier work.
For data set [4] the following is noted: dogs, even at higher doses; cited from earlier work.

Molecules are shown by their SMILES. Where two headings read alike, the source gives them in different places.

For orientation: IC50 means the midpoint of a concentration-inhibition curve.

Chain of human recombinant WT BTK (Q06187 whole entry): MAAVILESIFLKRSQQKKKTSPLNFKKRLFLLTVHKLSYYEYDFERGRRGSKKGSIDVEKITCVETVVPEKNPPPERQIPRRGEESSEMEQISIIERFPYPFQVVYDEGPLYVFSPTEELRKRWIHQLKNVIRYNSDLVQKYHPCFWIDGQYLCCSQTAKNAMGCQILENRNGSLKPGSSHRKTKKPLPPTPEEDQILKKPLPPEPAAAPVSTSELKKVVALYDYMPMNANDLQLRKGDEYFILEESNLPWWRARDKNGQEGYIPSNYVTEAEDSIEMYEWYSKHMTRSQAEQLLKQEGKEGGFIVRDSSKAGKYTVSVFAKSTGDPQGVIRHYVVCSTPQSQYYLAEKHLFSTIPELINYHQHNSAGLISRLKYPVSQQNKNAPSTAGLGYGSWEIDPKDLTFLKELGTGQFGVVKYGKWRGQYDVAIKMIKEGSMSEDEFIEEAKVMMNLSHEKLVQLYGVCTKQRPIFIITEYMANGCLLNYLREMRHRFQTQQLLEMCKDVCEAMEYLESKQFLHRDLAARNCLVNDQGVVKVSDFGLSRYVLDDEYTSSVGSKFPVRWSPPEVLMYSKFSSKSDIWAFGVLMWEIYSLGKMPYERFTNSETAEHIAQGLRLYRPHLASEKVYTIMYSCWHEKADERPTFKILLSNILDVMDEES

`C=CC(=O)Nc1cc(Nc2nc(-c3ccnc(NC(=O)c4ccc(C(C)(C)C)cc4)c3CO)cn(C)c2=O)ccc1N1CCN(C2CCOCC2)C[C@@H]1C` [Example 1, 4-tert-butyl-N-[3-(hydroxymethyl)-4-[4-methyl-6-([4-[(2S)-2-methyl-4-(oxan-4-yl)piperazin-1-yl]-3-(prop-2-enamido)phenyl]amino)-5-oxopyrazin-2-yl]pyridin-2-yl]benzamide]: on human recombinant WT BTK, the IC50 was determined as 640 pM.
On to `C[C@H]1CN(C2COC2)CCN1c1ccc(Nc2cc(-c3ccnc(N4CCn5c(cc6c5CC(C)(C)C6)C4=O)c3CO)cn(C)c2=O)nc1` [GDC-0853], for which, in data set [1], the “tolerability in Phase I clinical trials” value is reported as “well-tolerated”. The pancreatic toxicity result in data set [2] is “does not occur”; in data set [3], “leads to pancreatic toxicity”; in data set [4], “does not occur”.

The record behind these values is patent US20230382900A1, “INHIBITORS OF BTK” (Newave Pharmaceutical Inc., priority 2020, published 2023).
